Test results taken from paper PMC12260505, “First-in-Human Phase I/IIa Study of the First-in-Class CDK2/4/6 Inhibitor PF-06873600 Alone or with Endocrine Therapy in Patients with Breast Cancer” (Clinical Cancer Research, 2025).

Assay: Adverse events graded by NCI CTCAE version 4.03, phase I/IIa study
Assay type: in vivo
Protocol: Part 1 included adult patients with HR^+/HER2^− advanced breast cancer or mBC (third- or fourth-line setting), locally recurrent/advanced or metastatic TNBC, or advanced platinum-resistant epithelial ovarian cancer/fallopian tube cancer/primary peritoneal cancer who received oral PF-06873600 at doses of 1 to 50 mg twice daily or oral PF-06873600 plus ET (letrozole or fulvestrant). Primary endpoints for part 1 dose escalation determined safety and tolerability to define dose-limiting toxicities (DLT), estimate the maximum tolerated dose, and select the recommended dose for expansion (RDE). Safety endpoints included adverse events (AE) characterized by type, frequency, severity [as graded by NCI Common Terminology Criteria for Adverse Events (CTCAE) version 4.03], timing, seriousness, and relationship to study therapy. Laboratory abnormalities were characterized by type, frequency, severity (as graded by NCI CTCAE version 4.03), timing, vital sign abnormalities, and heart rate–corrected QT interval (e.g., QTcF). Secondary endpoints included PK, preliminary antitumor activity as assessed using RECIST version 1.1, time-to-event endpoints including objective response rate (ORR), duration of response (DoR), progression-free survival (PFS), time to progression (TTP), and modulation of tumor CDK biomarkers [phosphorylated Rb (pRb), Ki67]. Exploratory endpoints included molecular profiling of tumor and ctDNA and the relationship to clinical outcome.
AEs were graded by NCI CTCAE version 4.03.

[1] = Part 2C 25 mg BID IR + Fulvestrant, N = 28
[2] = parts 1 and 2, N = 151, all cycles

SMILES: C[C@@]1(O)CCC[C@H]1n1c(=O)c(C(F)F)cc2cnc(NC3CCN(S(C)(=O)=O)CC3)nc21 [PF-06873600]
- Treatment-related TEAE, Headache, Grade 3/4 [1]: 0 n (%)
- Treatment-related TEAE, Headache, Grade 5 [1]: 0 n (%)
- Treatment-related TEAE, Headache, Total [1]: 9 (32.1) n (%)
- Treatment-related TEAE, Leukopenia, Grade 1 [1]: 3 (10.7) n (%)
- Treatment-related TEAE, Leukopenia, Grade 2 [1]: 3 (10.7) n (%)
- Treatment-related TEAE, Leukopenia, Grade 3/4 [1]: 0 n (%)
- Treatment-related TEAE, Leukopenia, Grade 5 [1]: 0 n (%)
- Treatment-related TEAE, Leukopenia, Total [1]: 6 (21.4) n (%)
- Treatment-related TEAE, Nausea, Grade 1 [1]: 12 (42.9 ) n (%)
- Treatment-related TEAE, Nausea, Grade 2 [1]: 7 (25.0) n (%)
- Treatment-related TEAE, Nausea, Grade 3/4 [1]: 0 n (%)
- Treatment-related TEAE, Nausea, Grade 5 [1]: 0 n (%)
- Treatment-related TEAE, Nausea, Total [1]: 19 (67.9 ) n (%)
- Treatment-related TEAE, Neutropenia, Grade 1 [1]: 1 (3.6) n (%)
- Treatment-related TEAE, Neutropenia, Grade 2 [1]: 2 (7.1) n (%)
- Treatment-related TEAE, Neutropenia, Grade 3/4 [1]: 6 (21.4) n (%)
- Treatment-related TEAE, Neutropenia, Grade 5 [1]: 0 n (%)
- Treatment-related TEAE, Neutropenia, Total [1]: 9 (32.1) n (%)
- Treatment-related TEAE, Thrombocytopenia, Grade 1 [1]: 1 (3.6) n (%)
- Treatment-related TEAE, Thrombocytopenia, Grade 2 [1]: 0 n (%)
- Treatment-related TEAE, Thrombocytopenia, Grade 3/4 [1]: 1 (3.6) n (%)
- Treatment-related TEAE, Thrombocytopenia, Grade 5 [1]: 0 n (%)
- Treatment-related TEAE, Thrombocytopenia, Total [1]: 2 (7.1) n (%)
- Treatment-related TEAE, Vomiting, Grade 1 [1]: 8 (28.6) n (%)
- Treatment-related TEAE, Vomiting, Grade 2 [1]: 4 (14.3) n (%)
- Treatment-related TEAE, Vomiting, Grade 3/4 [1]: 0 n (%)
- Treatment-related TEAE, Vomiting, Grade 5 [1]: 0 n (%)
- Treatment-related TEAE, Vomiting, Total [1]: 12 (42.9 ) n (%)
- All-causality SAE, abdominal pain (parts 1 and 2, 151 patients): 2.0%
- All-causality SAE, colitis (parts 1 and 2, 151 patients): 2.0%
- All-causality SAE, febrile neutropenia (parts 1 and 2, 151 patients): 3.3%
- All-causality SAE, hypotension (parts 1 and 2, 151 patients): 2.0%
- All-causality TEAE, alopecia (parts 1 and 2, 151 patients): 28.5%
- All-causality TEAE, anemia (parts 1 and 2, 151 patients): 44.4%
- All-causality TEAE, constipation (parts 1 and 2, 151 patients): 25.2%
- All-causality TEAE, diarrhea (parts 1 and 2, 151 patients): 22.5%
- All-causality TEAE, fatigue (parts 1 and 2, 151 patients): 43.7%
- All-causality TEAE, headache (parts 1 and 2, 151 patients): 29.1%
- All-causality TEAE, leukopenia (parts 1 and 2, 151 patients): 25.8%
- All-causality TEAE, nausea (parts 1 and 2, 151 patients): 62.9%
- All-causality TEAE, neutropenia (parts 1 and 2, 151 patients): 37.7%
- All-causality TEAE, vomiting (parts 1 and 2, 151 patients): 35.8%
- All-causality TEAEs, any, patients (parts 1 and 2, 151 patients): 97.4%
- All-causality serious adverse events (SAE), patients (parts 1 and 2, 151 patients): 22.5%
- Grade 3 all-causality TEAEs, patients (parts 1 and 2, 151 patients): 34.4%
- Grade 3 and grade 4 all-causality TEAEs, patients (parts 1 and 2, 151 patients): 45.7%
- Grade 3 treatment-related TEAEs, patients (parts 1 and 2, 151 patients): 25.8%
- Grade 4 all-causality TEAEs, patients (parts 1 and 2, 151 patients): 11.3%
- Grade 4 treatment-related TEAEs, patients (parts 1 and 2, 151 patients): 9.9%
- TEAE leading to dose interruptions, anemia (parts 1 and 2, 151 patients): 11.3%
- TEAE leading to dose interruptions, nausea (parts 1 and 2, 151 patients): 11.3%
- TEAE leading to dose interruptions, neutropenia (parts 1 and 2, 151 patients): 17.9%
- TEAE leading to dose reductions, fatigue (parts 1 and 2, 151 patients): 5.3%
- TEAE leading to dose reductions, nausea (parts 1 and 2, 151 patients): 4.6%
- TEAE leading to dose reductions, neutropenia (parts 1 and 2, 151 patients): 6.0%
- TEAEs leading to discontinuation, patients (parts 1 and 2, 151 patients): 7.3%
- TEAEs leading to dose interruptions, patients (parts 1 and 2, 151 patients): 51.7%
- TEAEs leading to dose reductions, patients (parts 1 and 2, 151 patients): 21.2%
- Treatment-related SAE, colitis (parts 1 and 2, 151 patients): 1.3%
- Treatment-related SAE, febrile neutropenia (parts 1 and 2, 151 patients): 3.3%
- Treatment-related SAE, neutropenia (parts 1 and 2, 151 patients): 1.3%
- Treatment-related SAE, stomatitis (parts 1 and 2, 151 patients): 1.3%
- Treatment-related SAEs, patients (parts 1 and 2, 151 patients): 8.6%
- Treatment-related TEAE, Alopecia, Grade 1 [2]: 21 (13.9) n (%)
- Treatment-related TEAE, Alopecia, Grade 2 [2]: 21 (13.9) n (%)
- Treatment-related TEAE, Alopecia, Grade 3/4 [2]: 0 n (%)
- Treatment-related TEAE, Alopecia, Grade 5 [2]: 0 n (%)
- Treatment-related TEAE, Alopecia, Total [2]: 42 (27.8) n (%)
- Treatment-related TEAE, Anemia, Grade 1 [2]: 13 (8.6) n (%)
- Treatment-related TEAE, Anemia, Grade 2 [2]: 28 (18.5) n (%)
- Treatment-related TEAE, Anemia, Grade 3/4 [2]: 21 (13.9) n (%)
- Treatment-related TEAE, Anemia, Grade 5 [2]: 0 n (%)
- Treatment-related TEAE, Anemia, Total [2]: 62 (41.1) n (%)
- Treatment-related TEAE, Any AE, Grade 1 [2]: 27 (17.9) n (%)
- Treatment-related TEAE, Any AE, Grade 2 [2]: 55 (36.4) n (%)
- Treatment-related TEAE, Any AE, Grade 3/4 [2]: 54 (35.8) n (%)
- Treatment-related TEAE, Any AE, Grade 5 [2]: 2 (1.3) n (%)
- Treatment-related TEAE, Any AE, Total [2]: 138 (91.4) n (%)
- Treatment-related TEAE, Constipation, Grade 1 [2]: 13 (8.6) n (%)
- Treatment-related TEAE, Constipation, Grade 2 [2]: 10 (6.6) n (%)
- Treatment-related TEAE, Constipation, Grade 3/4 [2]: 0 n (%)
- Treatment-related TEAE, Constipation, Grade 5 [2]: 0 n (%)
- Treatment-related TEAE, Constipation, Total [2]: 23 (15.2) n (%)
- Treatment-related TEAE, Diarrhea, Grade 1 [2]: 21 (13.9) n (%)
- Treatment-related TEAE, Diarrhea, Grade 2 [2]: 4 (2.6) n (%)
- Treatment-related TEAE, Diarrhea, Grade 3/4 [2]: 2 (1.3) n (%)
- Treatment-related TEAE, Diarrhea, Grade 5 [2]: 0 n (%)
- Treatment-related TEAE, Diarrhea, Total [2]: 27 (17.9) n (%)
- Treatment-related TEAE, Fatigue, Grade 1 [2]: 23 (15.2) n (%)
- Treatment-related TEAE, Fatigue, Grade 2 [2]: 25 (16.6) n (%)
- Treatment-related TEAE, Fatigue, Grade 3/4 [2]: 12 (7.9) n (%)
- Treatment-related TEAE, Fatigue, Grade 5 [2]: 0 n (%)
- Treatment-related TEAE, Fatigue, Total [2]: 60 (39.7) n (%)
- Treatment-related TEAE, Headache, Grade 1 [2]: 28 (18.5) n (%)
- Treatment-related TEAE, Headache, Grade 2 [2]: 4 (2.6) n (%)
- Treatment-related TEAE, Headache, Grade 3/4 [2]: 0 n (%)
- Treatment-related TEAE, Headache, Grade 5 [2]: 0 n (%)
- Treatment-related TEAE, Headache, Total [2]: 32 (21.2) n (%)
- Treatment-related TEAE, Leukopenia, Grade 1 [2]: 5 (3.3) n (%)
- Treatment-related TEAE, Leukopenia, Grade 2 [2]: 23 (15.2) n (%)
- Treatment-related TEAE, Leukopenia, Grade 3/4 [2]: 9 (6.0) n (%)
- Treatment-related TEAE, Leukopenia, Grade 5 [2]: 0 n (%)
- Treatment-related TEAE, Leukopenia, Total [2]: 37 (24.5) n (%)
- Treatment-related TEAE, Nausea, Grade 1 [2]: 65 (43.0) n (%)
- Treatment-related TEAE, Nausea, Grade 2 [2]: 26 (17.2) n (%)
- Treatment-related TEAE, Nausea, Grade 3/4 [2]: 1 (0.7) n (%)
- Treatment-related TEAE, Nausea, Grade 5 [2]: 0 n (%)
- Treatment-related TEAE, Nausea, Total [2]: 92 (60.9) n (%)
- Treatment-related TEAE, Neutropenia, Grade 1 [2]: 6 (4.0) n (%)
- Treatment-related TEAE, Neutropenia, Grade 2 [2]: 19 (12.6) n (%)
- Treatment-related TEAE, Neutropenia, Grade 3/4 [2]: 31 (20.5) n (%)
- Treatment-related TEAE, Neutropenia, Grade 5 [2]: 0 n (%)
- Treatment-related TEAE, Neutropenia, Total [2]: 56 (37.1) n (%)
- Treatment-related TEAE, Thrombocytopenia, Grade 1 [2]: 16 (10.6) n (%)
- Treatment-related TEAE, Thrombocytopenia, Grade 2 [2]: 4 (2.6) n (%)
- Treatment-related TEAE, Thrombocytopenia, Grade 3/4 [2]: 9 (6.0) n (%)
- Treatment-related TEAE, Thrombocytopenia, Grade 5 [2]: 0 n (%)
- Treatment-related TEAE, Thrombocytopenia, Total [2]: 29 (19.2) n (%)
- Treatment-related TEAE, Vomiting, Grade 1 [2]: 38 (25.2) n (%)
- Treatment-related TEAE, Vomiting, Grade 2 [2]: 12 (7.9) n (%)
- Treatment-related TEAE, Vomiting, Grade 3/4 [2]: 1 (0.7) n (%)
- Treatment-related TEAE, Vomiting, Grade 5 [2]: 0 n (%)
- Treatment-related TEAE, Vomiting, Total [2]: 51 (33.8) n (%)
